# Laboratory results taken from PMC8800111 (The Journal of Biological Chemistry, 2021).
# Legend:
# Format in all cases: cell-based
# [1] = target: proteins of U3A human fibrosarcoma cells (4462 proteins detected) (Homo sapiens, UniProt O00391); conditions: protein QSOX1; U3A cells
# [2] = target: proteins of U3A human fibrosarcoma cells (4462 proteins detected) (Homo sapiens, UniProt O15042); conditions: protein U2SURP; U3A cells
# [3] = target: proteins of U3A human fibrosarcoma cells (4462 proteins detected) (Homo sapiens, UniProt O75937); conditions: protein DNAJC8, U3A cells
# [4] = target: proteins of U3A human fibrosarcoma cells (4462 proteins detected) (Homo sapiens, UniProt O76003); conditions: protein GLRX3; U3A cells
# [5] = target: proteins of U3A human fibrosarcoma cells (4462 proteins detected) (Homo sapiens, UniProt O76061); conditions: protein STC2; U3A cells
# [6] = target: proteins of U3A human fibrosarcoma cells (4462 proteins detected) (Homo sapiens, UniProt P08174); conditions: protein CD55; U3A cells
# Chain of proteins of U3A human fibrosarcoma cells (4462 proteins detected) (Homo sapiens, UniProt P08174) (P08174 35-381): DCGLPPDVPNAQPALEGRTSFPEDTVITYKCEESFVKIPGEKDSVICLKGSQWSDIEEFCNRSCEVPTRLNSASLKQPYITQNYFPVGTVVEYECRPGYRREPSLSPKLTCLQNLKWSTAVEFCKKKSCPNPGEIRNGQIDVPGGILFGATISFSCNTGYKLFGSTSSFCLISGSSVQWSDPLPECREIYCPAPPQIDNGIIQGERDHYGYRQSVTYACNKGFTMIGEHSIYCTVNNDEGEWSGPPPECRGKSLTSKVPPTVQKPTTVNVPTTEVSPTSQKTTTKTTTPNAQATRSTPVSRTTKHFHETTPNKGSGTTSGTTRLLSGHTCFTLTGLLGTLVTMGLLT
# [7] = target: proteins of U3A human fibrosarcoma cells (4462 proteins detected) (Homo sapiens, UniProt P26583); conditions: protein HMGB2; U3A, 10 μM, 2 h
# [8] = target: proteins of U3A human fibrosarcoma cells (4462 proteins detected) (Homo sapiens, UniProt P34896); conditions: protein SHMT1, U3A cells
# [9] = target: proteins of U3A human fibrosarcoma cells (4462 proteins detected) (Homo sapiens, UniProt P35244); conditions: protein RPA3; soluble abundance after heat, U3A cells
# [10] = target: proteins of U3A human fibrosarcoma cells (4462 proteins detected) (Homo sapiens, UniProt P48637); conditions: protein GSS; soluble abundance after heat, U3A cells
# [11] = target: proteins of U3A human fibrosarcoma cells (4462 proteins detected) (Homo sapiens, UniProt P49841); conditions: protein GSK3B; soluble abundance after heat, U3A cells
# [12] = target: proteins of U3A human fibrosarcoma cells (4462 proteins detected) (Homo sapiens, UniProt P49916); conditions: protein LIG3; U3A cells
# [13] = target: proteins of U3A human fibrosarcoma cells (4462 proteins detected) (Homo sapiens, UniProt P50995); conditions: protein ANXA11; U3A cells
# [14] = target: proteins of U3A human fibrosarcoma cells (4462 proteins detected) (Homo sapiens, UniProt P52294); conditions: protein KPNA1; U3A cells
# [15] = target: proteins of U3A human fibrosarcoma cells (4462 proteins detected) (Homo sapiens, UniProt P61081); conditions: protein UBE2M; U3A cells
# [16] = target: proteins of U3A human fibrosarcoma cells (4462 proteins detected) (Homo sapiens, UniProt P62873); conditions: protein GNB1; U3A cells
# [17] = target: proteins of U3A human fibrosarcoma cells (4462 proteins detected) (Homo sapiens, UniProt Q13185); conditions: protein CBX3, U3A cells
# Chain of proteins of U3A human fibrosarcoma cells (4462 proteins detected) (Homo sapiens, UniProt Q13185) (Q13185 whole entry): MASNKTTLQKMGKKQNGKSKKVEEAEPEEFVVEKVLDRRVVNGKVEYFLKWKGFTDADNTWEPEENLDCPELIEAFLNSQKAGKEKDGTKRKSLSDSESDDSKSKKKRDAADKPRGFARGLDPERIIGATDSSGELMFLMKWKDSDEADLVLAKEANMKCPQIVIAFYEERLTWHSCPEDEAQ
# [18] = target: proteins of U3A human fibrosarcoma cells (4462 proteins detected) (Homo sapiens, UniProt Q13330); conditions: protein MTA1; U3A cells
# [19] = target: proteins of U3A human fibrosarcoma cells (4462 proteins detected) (Homo sapiens, UniProt Q13641); conditions: protein TPBG; soluble abundance after heat, U3A cells
# [20] = target: proteins of U3A human fibrosarcoma cells (4462 proteins detected) (Homo sapiens, UniProt Q15428); conditions: protein SF3A2; U3A cells
# [21] = target: proteins of U3A human fibrosarcoma cells (4462 proteins detected) (Homo sapiens, UniProt Q16637); conditions: protein SMN1; SMN2; U3A, 10 μM, 2 h
# [22] = target: proteins of U3A human fibrosarcoma cells (4462 proteins detected) (Homo sapiens, UniProt Q32P44); conditions: protein EML3, U3A cells
# [23] = target: proteins of U3A human fibrosarcoma cells (4462 proteins detected) (Homo sapiens, UniProt Q53FT3); conditions: protein C11orf73; U3A, 10 μM, 2 h
# [24] = target: proteins of U3A human fibrosarcoma cells (4462 proteins detected) (Homo sapiens, UniProt Q6KC79); conditions: protein NIPBL; U3A cells
# Chain of proteins of U3A human fibrosarcoma cells (4462 proteins detected) (Homo sapiens, UniProt Q6KC79) (Q6KC79 whole entry): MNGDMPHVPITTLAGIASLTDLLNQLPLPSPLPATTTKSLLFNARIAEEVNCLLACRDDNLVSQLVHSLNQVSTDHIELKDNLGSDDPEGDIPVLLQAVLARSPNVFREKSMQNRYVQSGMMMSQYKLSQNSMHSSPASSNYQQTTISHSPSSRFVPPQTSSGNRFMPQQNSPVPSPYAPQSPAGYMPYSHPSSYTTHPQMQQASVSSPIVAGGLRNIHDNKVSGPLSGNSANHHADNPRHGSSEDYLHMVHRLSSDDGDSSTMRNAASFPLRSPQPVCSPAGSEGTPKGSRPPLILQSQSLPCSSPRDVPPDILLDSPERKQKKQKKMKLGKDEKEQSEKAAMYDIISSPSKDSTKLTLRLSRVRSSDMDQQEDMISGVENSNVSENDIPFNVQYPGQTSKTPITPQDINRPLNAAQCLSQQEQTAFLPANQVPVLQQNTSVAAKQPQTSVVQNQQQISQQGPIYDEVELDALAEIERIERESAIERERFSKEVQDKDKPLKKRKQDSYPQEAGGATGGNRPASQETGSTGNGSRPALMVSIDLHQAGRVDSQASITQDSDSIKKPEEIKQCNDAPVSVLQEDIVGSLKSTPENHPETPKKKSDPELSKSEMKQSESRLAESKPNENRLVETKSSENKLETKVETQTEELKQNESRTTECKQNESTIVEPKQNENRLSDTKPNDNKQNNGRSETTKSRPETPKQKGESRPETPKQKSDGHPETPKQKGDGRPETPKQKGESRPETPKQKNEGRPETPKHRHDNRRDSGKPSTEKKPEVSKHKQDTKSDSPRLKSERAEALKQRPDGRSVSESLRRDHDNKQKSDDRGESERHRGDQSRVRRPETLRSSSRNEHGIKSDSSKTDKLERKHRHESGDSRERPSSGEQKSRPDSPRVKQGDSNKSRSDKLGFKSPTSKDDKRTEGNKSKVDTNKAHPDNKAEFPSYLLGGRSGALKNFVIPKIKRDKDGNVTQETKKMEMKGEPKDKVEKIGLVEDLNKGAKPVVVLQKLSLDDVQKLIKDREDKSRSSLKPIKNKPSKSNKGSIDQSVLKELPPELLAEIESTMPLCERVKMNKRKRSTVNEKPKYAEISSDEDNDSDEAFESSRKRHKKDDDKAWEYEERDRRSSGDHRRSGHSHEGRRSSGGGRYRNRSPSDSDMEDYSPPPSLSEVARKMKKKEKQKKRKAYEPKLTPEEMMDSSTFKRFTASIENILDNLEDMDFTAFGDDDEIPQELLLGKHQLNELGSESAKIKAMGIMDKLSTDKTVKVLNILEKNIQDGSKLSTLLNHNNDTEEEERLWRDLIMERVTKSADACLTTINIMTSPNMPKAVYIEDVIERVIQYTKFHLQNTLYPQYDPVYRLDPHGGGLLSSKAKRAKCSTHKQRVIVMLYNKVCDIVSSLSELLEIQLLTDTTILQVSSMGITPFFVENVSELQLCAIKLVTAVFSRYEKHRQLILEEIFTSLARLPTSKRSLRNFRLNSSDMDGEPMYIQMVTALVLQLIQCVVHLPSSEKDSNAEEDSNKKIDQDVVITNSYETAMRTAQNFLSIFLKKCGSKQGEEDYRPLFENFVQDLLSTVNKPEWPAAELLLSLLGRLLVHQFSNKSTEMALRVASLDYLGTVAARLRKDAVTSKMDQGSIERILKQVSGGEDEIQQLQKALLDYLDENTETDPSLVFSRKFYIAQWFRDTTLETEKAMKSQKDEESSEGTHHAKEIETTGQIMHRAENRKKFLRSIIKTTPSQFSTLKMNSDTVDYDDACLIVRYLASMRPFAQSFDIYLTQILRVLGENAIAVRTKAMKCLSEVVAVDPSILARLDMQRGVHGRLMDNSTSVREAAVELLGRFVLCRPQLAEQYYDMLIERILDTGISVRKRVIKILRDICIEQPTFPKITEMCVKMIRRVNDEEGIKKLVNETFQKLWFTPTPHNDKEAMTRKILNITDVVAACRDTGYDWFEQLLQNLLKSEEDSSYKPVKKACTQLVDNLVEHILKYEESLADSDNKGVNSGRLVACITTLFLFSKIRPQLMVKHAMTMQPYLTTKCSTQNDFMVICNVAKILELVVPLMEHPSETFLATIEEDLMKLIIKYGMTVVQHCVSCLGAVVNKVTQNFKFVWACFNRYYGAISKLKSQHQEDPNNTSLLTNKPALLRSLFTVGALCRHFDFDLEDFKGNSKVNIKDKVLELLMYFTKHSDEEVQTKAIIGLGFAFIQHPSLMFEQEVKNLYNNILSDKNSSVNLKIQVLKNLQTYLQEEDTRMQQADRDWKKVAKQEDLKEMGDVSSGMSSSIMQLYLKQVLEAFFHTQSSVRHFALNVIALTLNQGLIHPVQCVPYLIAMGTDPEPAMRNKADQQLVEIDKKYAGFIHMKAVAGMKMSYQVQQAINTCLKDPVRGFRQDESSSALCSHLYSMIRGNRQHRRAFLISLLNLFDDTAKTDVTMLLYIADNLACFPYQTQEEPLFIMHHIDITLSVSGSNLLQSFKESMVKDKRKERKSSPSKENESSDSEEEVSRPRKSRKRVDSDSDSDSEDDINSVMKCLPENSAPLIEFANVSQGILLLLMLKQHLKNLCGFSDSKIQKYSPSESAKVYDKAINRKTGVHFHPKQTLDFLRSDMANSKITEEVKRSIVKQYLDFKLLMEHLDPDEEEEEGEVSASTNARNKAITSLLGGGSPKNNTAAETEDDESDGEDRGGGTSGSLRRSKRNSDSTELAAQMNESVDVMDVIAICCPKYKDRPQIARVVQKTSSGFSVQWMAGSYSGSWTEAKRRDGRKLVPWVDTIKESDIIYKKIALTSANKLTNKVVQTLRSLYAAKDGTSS
# [25] = target: proteins of U3A human fibrosarcoma cells (4462 proteins detected) (Homo sapiens, UniProt Q99873); conditions: protein PRMT1, U3A cells
# [26] = target: proteins of U3A human fibrosarcoma cells (4462 proteins detected) (Homo sapiens, UniProt Q9BW91); conditions: protein NUDT9, U3A cells
# [27] = target: proteins of U3A human fibrosarcoma cells (4462 proteins detected) (Homo sapiens, UniProt Q9HAT2); conditions: protein SIAE; U3A, 10 μM, 2 h
# [28] = target: proteins of U3A human fibrosarcoma cells (4462 proteins detected) (Homo sapiens, UniProt Q9NRL2); conditions: protein BAZ1A; U3A cells
# [29] = target: proteins of U3A human fibrosarcoma cells (4462 proteins detected) (Homo sapiens, UniProt Q9UQR1); conditions: protein ZNF148; U3A, 10 μM, 2 h
# [30] = target: proteins of U3A human fibrosarcoma cells (4462 proteins detected) (Homo sapiens, UniProt Q9Y5N6); conditions: protein ORC6; U3A cells
# Chain of proteins of U3A human fibrosarcoma cells (4462 proteins detected) (Homo sapiens, UniProt O00391) (O00391 30-747): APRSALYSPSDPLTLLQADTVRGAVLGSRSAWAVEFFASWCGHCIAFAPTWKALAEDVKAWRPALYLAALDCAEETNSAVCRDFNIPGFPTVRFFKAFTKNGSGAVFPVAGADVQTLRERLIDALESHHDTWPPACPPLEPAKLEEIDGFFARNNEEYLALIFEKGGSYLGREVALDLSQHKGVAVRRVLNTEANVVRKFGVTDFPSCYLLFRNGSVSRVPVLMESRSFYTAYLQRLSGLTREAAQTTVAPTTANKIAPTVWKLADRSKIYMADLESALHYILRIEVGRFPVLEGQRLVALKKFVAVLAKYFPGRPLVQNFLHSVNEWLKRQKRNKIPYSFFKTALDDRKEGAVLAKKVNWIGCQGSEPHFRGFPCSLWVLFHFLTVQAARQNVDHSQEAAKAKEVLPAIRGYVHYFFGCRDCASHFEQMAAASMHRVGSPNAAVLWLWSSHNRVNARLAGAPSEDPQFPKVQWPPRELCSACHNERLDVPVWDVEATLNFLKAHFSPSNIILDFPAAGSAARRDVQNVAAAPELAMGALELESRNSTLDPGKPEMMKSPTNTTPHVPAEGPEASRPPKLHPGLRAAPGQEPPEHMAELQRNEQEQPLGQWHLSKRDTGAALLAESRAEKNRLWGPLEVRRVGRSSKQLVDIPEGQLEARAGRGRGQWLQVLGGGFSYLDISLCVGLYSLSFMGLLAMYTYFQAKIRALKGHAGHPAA
# Chain of proteins of U3A human fibrosarcoma cells (4462 proteins detected) (Homo sapiens, UniProt O15042) (O15042 whole entry): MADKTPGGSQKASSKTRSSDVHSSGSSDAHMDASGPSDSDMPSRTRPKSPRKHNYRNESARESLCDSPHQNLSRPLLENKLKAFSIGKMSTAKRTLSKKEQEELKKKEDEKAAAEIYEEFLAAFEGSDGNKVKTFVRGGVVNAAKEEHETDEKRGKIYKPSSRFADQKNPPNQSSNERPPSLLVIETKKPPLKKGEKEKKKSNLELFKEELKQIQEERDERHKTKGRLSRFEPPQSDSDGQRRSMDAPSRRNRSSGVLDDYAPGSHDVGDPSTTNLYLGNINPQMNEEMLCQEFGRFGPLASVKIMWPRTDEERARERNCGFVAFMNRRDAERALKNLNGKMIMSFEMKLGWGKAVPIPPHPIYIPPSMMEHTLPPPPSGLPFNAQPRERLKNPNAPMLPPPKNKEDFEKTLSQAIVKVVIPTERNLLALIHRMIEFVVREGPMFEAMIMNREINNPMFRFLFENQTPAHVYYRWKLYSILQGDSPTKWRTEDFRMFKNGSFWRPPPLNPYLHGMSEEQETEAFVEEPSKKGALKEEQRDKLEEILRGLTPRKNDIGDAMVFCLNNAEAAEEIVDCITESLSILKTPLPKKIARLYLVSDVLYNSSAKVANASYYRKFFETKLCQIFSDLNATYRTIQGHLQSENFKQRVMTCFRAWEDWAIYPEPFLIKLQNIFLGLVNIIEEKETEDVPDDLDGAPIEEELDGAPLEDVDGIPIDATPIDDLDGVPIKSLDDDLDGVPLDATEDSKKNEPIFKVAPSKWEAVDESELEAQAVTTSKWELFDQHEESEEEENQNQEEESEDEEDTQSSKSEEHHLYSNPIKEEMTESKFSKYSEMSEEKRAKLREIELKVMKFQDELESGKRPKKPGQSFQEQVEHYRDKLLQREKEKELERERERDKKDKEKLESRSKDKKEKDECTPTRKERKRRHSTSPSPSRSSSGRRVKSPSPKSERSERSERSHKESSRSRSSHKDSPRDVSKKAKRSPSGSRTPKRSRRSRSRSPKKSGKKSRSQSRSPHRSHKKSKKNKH
structure (smiles),measurement,setting,value
CCc1nc(N)nc(N)c1-c1ccc(Cl)cc1 [pyrimethamine],Log2 (PYR/DMSO),[1],0.17
same,Log2 (PYR/DMSO),[2],0.18
same,Log2 (PYR/DMSO),[3],-0.05
same,Log2 (PYR/DMSO),[4],0.16
same,Log2 (PYR/DMSO),[5],0.16
same,Log2 (PYR/DMSO),[6],0.20
same,"Log2 (PYR/DMSO), HMGB2",[7],-0.14
same,Log2 (PYR/DMSO),[8],-0.05
same,Log2 (PYR/DMSO),[9],0.13
same,Log2 (PYR/DMSO),[10],0.14
same,Log2 (PYR/DMSO),[11],0.15
same,Log2 (PYR/DMSO),[12],0.16
same,Log2 (PYR/DMSO),[13],0.19
same,Log2 (PYR/DMSO),[14],0.17
same,Log2 (PYR/DMSO),[15],0.19
same,Log2 (PYR/DMSO),[16],0.22
same,Log2 (PYR/DMSO),[17],-0.05
same,Log2 (PYR/DMSO),[18],0.16
same,Log2 (PYR/DMSO),[19],0.14
same,Log2 (PYR/DMSO),[20],0.20
same,"Log2 (PYR/DMSO), SMN1; SMN2",[21],-0.18
same,Log2 (PYR/DMSO),[22],-0.05
same,"Log2 (PYR/DMSO), C11orf73",[23],0.28
same,Log2 (PYR/DMSO),[24],0.23
same,Log2 (PYR/DMSO),[25],-0.05
same,Log2 (PYR/DMSO),[26],-0.04
same,"Log2 (PYR/DMSO), SIAE",[27],0.34
same,Log2 (PYR/DMSO),[28],0.19
same,"Log2 (PYR/DMSO), ZNF148",[29],0.26
same,Log2 (PYR/DMSO),[30],0.18
